These results are taken from patent US6870044B2, “Inflammation inducible hybrid promoters, vectors comprising them and uses thereof” (Universite Pierre et Marie Curie, priority 2000, dated 2005).

“And” between values parts separate entries of the source, which are not always exact repeats. Equal entries are not always repeated.

Series [1] deals with minimal promoter (−247/+20) of sPLA2-IIA. Kind of series: CAT reporter, minimal promoter (−247/+20) of sPLA2-IIA in transfected chondrocytes. In kind it is cell-based, rabbit. The settings on record: for activation of the minimal promoter (−247/+20) of sPLA2-IIA: PGJ2 10 μM or Wy-14643 200 μM, 24 hours. The protocol: (§1) The hind and forelegs of 3-week-old prepubescent rabbits (Fauve de Bourgogne) were dissected and chopped up under sterile conditions. The cartilage is removed with a scalpel and then the chondrocytes are dissociated by means of proteolytic enzymes: hyaluronidase 0.05% for 15 minutes, trypsine 0.25% for 30 minutes and collagenase 0.2% for 90 minutes. Finally, the HAM's F12 medium is added for 60 minutes. The suspension of chondrocytes is cultured in dishes 6 cm in diameter (150,000 cells per dish) in the presence of HAM's F12 medium containing 10% fetal calf serum.
(§2) When these cells reach preconfluence (6 to 7 days), they are transfected with the various constructs using the calcium phosphate method.
(§3) The CAT activity is measured according to the double liquid phase technique according to Desbois et al. (1992). The β-galactosidase activity is measured with the aim of normalizing the variations in the transfection efficiency.
(§4) The fragment −247/+20 of the promoter of sPLA2 IIA (SEQ ID NO:5) was subcloned upstream of the CAT reporter vector for the plasmid PUC-SH-CAT. Upstream of this promoter, the different PPRE sequences cited above (SEQ ID NO: 1-4) were inserted.
(§5) The rabbit chondrocytes were then transfected with the CAT constructs containing the different arrangements of PPRE (DR1) placed upstream of the minimal promoter of sPLA2-IIA. 15 deoxy Δ^12-14 PGJ2 (10 μM) (activator of PPARγ) or Wy-14643 (200 μM) (activator of PPARα) were then added to the culture medium for 24 hours.
(§6) Rabbit chondrocytes were then transfected, either with the minimal promoter of sPLA2-IIA, or with the sequence (DR1)2 21 placed upstream of the latter (hybrid promoter). PGJ2 (10 μM) and/or IL-1 (10 ng/ml) are added to the culture medium.

Series [2] deals with construct (DR)2 21-(−247/+20) sPLA2-CAT. As to the kind of experiment: CAT reporter, hybrid promoter (DR1)2 21-(−247/+20) sPLA2-CAT in transfected chondrocytes. In kind it is cell-based, rabbit. Conditions: for activation of the construct (DR1)2 21-(−247/+20)-CAT: 10^−4 M; for induction of the hybrid promoter, single inducer: PGJ2 10 μM, IL-1 10 ng/ml. The method, then:
as §1, §2, §3, §4, §5, §6

Series [3] deals with PPARγ and RXR proteins prepared in Cos-1 cells. As to the kind of experiment: Gel retardation, cooperative binding of PPARγ/RXR to radiolabeled PPRE sequences. Conditions: for cooperativity ratio KdII/KdIV (R): PPARγ/RXR ratio 3:1, Cos-1 extracts 1 μl to 10 μl, Phosphorimager quantification. The protocol: (§7) The Cos-1 cells (transformed monkey kidney fibroblasts) are transfected according to the abovementioned calcium phosphate technique using 20 μg of vectors for expression of PPARγ, PPARα or RXR. Non-transfected Cos-1 cells will serve as control. 48 hours after the transfection, the cells are incubated with a buffer containing KCl (0.45 M), Tris-HCl (20 mM, pH=7.5) and 10% glycerol. They are detached by scraping and then disrupted by cooling to −80° C. and thawing at 37° C. These cells are then centrifuged at 15,000 rpm, for 10 minutes at 4° C. The supernatant is then frozen at −80° C. and used for the gel retardation experiments.
(§8) The sequences DR1, (DR1)2 17, (DR1)2 21, and (DR1)2 31 are radiolabeled by means of the Klenow fragment of DNA polymerase using [α-^32P]dCTP. One hundred thousand cpm (0.4 ng) of the radiolabeled probes are incubated, for 30 minutes at 4° C., with increasing quantities of Cos-1 extracts enriched with PPAR and RXR (as indicated in the legend to the figures) and with a specific binding buffer (KCl 100 mM, Hepes 40 mM, pH 7.5, NP40 0.1%, ZnCl2 0.5 mM, PEG 8%). The mixture is then deposited on an acrylamide/bisacrylamide gel (5%, TBE 0.25×) and run for 2 hours 30 min at 200 volts. The gel is then dried and autoradiographed.
In order to verify the functional nature and the efficiency of the above PPRE regions, gel retardation experiments were carried out consisting in studying the binding between one of the four sequences above, radiolabeled beforehand, in the presence of increasing quantities (5 and 10 μl) of PPARγ and RXR proteins prepared in Cos-1 cells (PPARγ/RXR ratio=3:1).
With the aim of studying the cooperativity of the binding of PPAR/RXR to these different sequences, gel retardation experiments placing increasing quantities of Cos-1 extracts enriched with PPAR and RXR (1 μl to 10 μl), followed by quantification of the radioactivity obtained, were carried out. The formation of the first PPAR/RXR dimer is characterized by the dissociation constant KdII, that of the double dimer, or tetramer, is characterized by the dissociation constant KdIV. The KdII/KdIV ratio (R) is the reflection of the cooperativity of the binding if it is greater than 1.
The various dimeric and tetrameric complexes and the free probe were quantified by means of a Phosphorimager and represented in FIG. 3. The cooperativity ratios were calculated by means of the abovementioned formula. The sequences (DR1)2 17 and (DR1)2 31 bind as many dimeric and tetrameric forms. The cooperativity ratios are 9 and 12.6 respectively. […] The dimeric form forms only 20% of the total binding, whereas the tetrameric form forms 80% of the total binding. The cooperativity ratio is 34 +/−11.

For series [4], the system named is PPARα/RXR heterodimer (Cos-1 extracts enriched with PPARα and RXR). Kind of series: Gel retardation, cooperative binding of PPARα/RXR to radiolabeled PPRE sequences. The settings on record: PPARα/RXR 3/1, bands counted on a beta scintillation counter. The protocol: as §7, §8
With the aim of studying the cooperativity of the binding of PPAR/RXR to these different sequences, gel retardation experiments placing increasing quantities of Cos-1 extracts enriched with PPAR and RXR (1 μl to 10 μl), followed by quantification of the radioactivity obtained, were carried out. […]
Similar experiments were carried out with PPARα. […] Gel retardation experiments using the four radiolabeled sequences and increasing quantities of Cos-1 extracts enriched with PPARα and RXR (rapport3/1) were carried out. The bands corresponding to the dimeric (D) or tetrameric (T) forms or the free probe (P) were cut out of the gel and then quantified by counting on a beta scintillation counter (FIG. 4). […]

For series [5] the following is noted: form not soluble in water, dose 5 to 50 mg/kg, for example 30 mg/kg; cited from earlier work.
The test system of series [6] is RSV (Rous Sarcoma Virus) promoter (comparator). As to the kind of experiment: Transcriptional activity of the synthetic promoter compared with the RSV viral promoter. In kind it is cell-based. The source says: Finally, the levels of transcriptional activities reached by a viral promoter, such as the RSV (Rous Sarcoma Virus) promoter, and that of the synthetic promoter were compared. The basal transcriptional activity of the synthetic promoter is low, it is less than 5% of the activity of the RSV viral promoter.

`Cc1cccc(Nc2cc(Cl)nc(SCC(=O)O)n2)c1C` [Wy-14643, pirinixic acid]: the “activation of the minimal promoter (−247/+20) of sPLA2-IIA” value in series [1] is given as “no effect”; in series [1] (listed as Wy 14643), “not activated”. Moreover, the “activation of transcription of the hybrid construct” value in series [2] (Wy-14643 200 μM) is on record as 3 to 4 fold.

“(DR1)2 21: two DR1s separated center to center by 21 base pairs (DNA CAAAACTAGGTCAAAGGTCATCAAAACTAGGTCAAAGGTCA; radiolabeled by Klenow fill-in with 32P-dCTP, further chemistry not given here)”: in series [3] (PPARγ/RXR), the “dimeric form, share of total binding” value turned out to be 20% and the “tetrameric form, share of total binding” value is 80%. For the same molecule, the “cooperativity ratio KdII/KdIV (R)” value in series [3] is on record as 34 +/−11. Further, the “cooperativity ratio (R)” value in series [4] is 11.2 and 11.

Turning to “(DR1)2 31: two DR1s separated center to center by 31 base pairs (DNA CAAAACTAGGTCAAAGGTCATGTCTTTAGGCCCAAAACTAGGTCAAAGGTCA; radiolabeled by Klenow fill-in with 32P-dCTP, further chemistry not given here)”, the “cooperativity ratio KdII/KdIV (R)” value in series [3] was determined as 12.6. Besides, the “cooperativity ratio (R)” value in series [4] was 11.6 and 11.

With `COc1ccc2c(c1)c(CC(=O)O)c(C)n2C(=O)c1ccc(Cl)cc1` [indomethacin], the “activation of the construct (DR1)2 21-(−247/+20)-CAT” value in series [2] was “about fivefold”.

For `CCCCC/C=C/C=C1/C(=O)C=C[C@@H]1C/C=C\CCCC(=O)O` [PGJ2, 15 deoxy Δ^12-14 PGJ2], the “activation of the minimal promoter (−247/+20) of sPLA2-IIA” value in series [1] is “not activated”; in series [1] (listed as prostaglandin J2) it was “no effect”. Besides, the “induction of the hybrid promoter, single inducer” value in series [2] is recorded as 4 fold.

Consider `CC(C)Cc1ccc(C(C)C(=O)O)cc1` (centres unmarked) [ibuprofen], for which the “activation of the construct (DR1)2 21-(−247/+20)-CAT” value in series [2] amounted to 17 fold.

For “IL-1: pro-inflammatory cytokine interleukin-1”, the “stimulation of the activity of the CAT reporter gene” value in series [1] (247 bp fragment upstream of first exon of human PLA2s IIA gene, rabbit chondrocytes in primary culture) is recorded as 6 to 8 times. In addition, the “induction of the promoter of sPLA2-IIA” value in series [1] (IL-1 10 ng/ml in culture medium) is on record as 6 fold. Besides, the “induction of the hybrid promoter, single inducer” value in series [2] came to 4 fold.

Take `CN(CCOc1ccc(CC2SC(=O)NC2=O)cc1)c1ccccn1` (centres unmarked) [BRL 49653, rosiglitazone]: in series [5], the plasma concentration result was “about 15 μg/ml”.

In the case of “(DR1)2 17: two DR1s separated center to center by 17 base pairs (DNA CAAAACTAGGTCAAAGGTCAAAACTAGGTCAAAGGTCA; radiolabeled by Klenow fill-in with 32P-dCTP, further chemistry not given here)”, the “cooperativity ratio KdII/KdIV (R)” value in series [3] is 9. For the same molecule, the “cooperativity ratio (R)” value in series [4] is given as 7.

As to `C[C@@H]1C[C@H]2[C@@H]3CCC4=CC(=O)C=C[C@]4(C)[C@@]3(F)[C@@H](O)C[C@]2(C)[C@@]1(O)C(=O)CO` [Dexamethasone, dexamethasone], the “activation of transcription of the synthetic promoter” value in series [2] (dexamethasone alone, concentration not given) is “about 6 fold”.

B1: synthetic promoter: PPAR response element (DR1)2 21 linked to fragment −247/+20 of the PLA2s IIA gene (nucleic acid)
DNA: GTACCAATTCGACAAAACTAGGTCAAAGGTCATCAAAACTAGGTCAAAGGTCAAATTCGAACGCGGCAAAACTGCCTGAAATGTGTTTTGGCATCAGCTACTGACACGTAAGGTTTCCCAATCCTCAACTCTGTCCTGCCAGCTGATGAGGGGAAGGAAAGGGATTACCTAGGGGTATGGGCGACCAATCCTGAGTCCACCAACTGACCACGCCCATCCCCAGCCTTGTGCCTCACCTACCCCCAACCTCCCAGAGGGAGCAGCTATTTAAGGGGAGCAGGAGTGCAGAACAAACAAGACGGCCTGGGGATACAACTCTGGAGTCCTCTGAG
modifications: PPRE/PLA2s hybrid promoter
notes: PPAR response element (DR1)2 21 linked to fragment −247/+20 of the PLA2s IIA gene
As to B1, in series [6] (after induction with the different effectors (results not shown)), the “transcriptional activity relative to RSV after induction” value came out at 40%. For the same molecule, the “basal transcriptional activity, relative to the RSV viral promoter” value in series [6] (not induced) is “less than 5%”.
